Values after ≈ are worked out from the molar mass of the structure shown. Active and inactive are the calls of the source. Unless noted, no cut-off for these calls is given here.
Key:
Staphylococcus aureus [1] = test: Antimicrobial activity against methicillin-resistant Staphylococcus aureus CBD-635 assessed as zone of inhibition at 5 mg/ml after 24 hrs by disk diffusion assay; assay type: functional; conditions: CBD-635, 24 h, read-out: IZ
[2] = Aqueous solubility of the compound at pH 7.4 after 18 hrs incubation by HPLC; assay type: physicochemical
Staphylococcus aureus [3] = test: Bactericidal activity against methicillin-resistant Staphylococcus aureus CBD-635 assessed as bacterial killing; assay type: functional
[4] = Cytotoxicity against human A549 cells assessed as cell viability recovery at 1.6 to 16 uM by MTT assay relative to untreated control; assay type: cell-based; conditions: read-out: Activity
[5] = pampa, pH 4
Staphylococcus aureus [6] = test: Antimicrobial activity against methicillin-resistant Staphylococcus aureus CBD-635 assessed as complete inhibition of bacterial growth after overnight incubation; assay type: functional
Staphylococcus aureus [7] = test: Antimicrobial activity against wild type Staphylococcus aureus in presence of sulfamethoxazole; assay type: functional
[8] = Lipophilicity, log D of the compound at pH 7.4; assay type: physicochemical; conditions: buffer
Staphylococcus aureus [9] = test: Antimicrobial activity against Staphylococcus aureus infected Galleria mellonella assessed as increase in larvae survival at 5 times MIC; assay type: functional
[10] = pampa, pH 7.4
Staphylococcus aureus [11] = test: Antimicrobial activity against Staphylococcus aureus infected in mouse assessed as increase in mouse survival at 5 times MIC via tail vein relative to untreated control; assay type: functional
Staphylococcus aureus [12] = test: Antimicrobial activity against methicillin-resistant Staphylococcus aureus CBD-635 assessed as complete inhibition of bacterial growth at 5 times MIC after overnight incubation in presence of tetrahydrofolic acid; assay type: functional, organism-based
[13] = Cytotoxicity against human A549 cells assessed as cell viability recovery at 41 to 410 uM by MTT assay relative to untreated control; assay type: cell-based; conditions: read-out: Activity
Staphylococcus aureus [14] = test: Antimicrobial activity against quinazoline-resistant Staphylococcus aureus assessed as complete inhibition of bacterial growth after 24 hrs; assay type: functional, organism-based
Staphylococcus aureus [15] = test: Antimicrobial activity against trimethoprim-resistant Staphylococcus aureus assessed as complete inhibition of bacterial growth after 24 hrs; assay type: functional, organism-based
Staphylococcus aureus [16] = test: Antimicrobial activity against Staphylococcus aureus infected Galleria mellonella assessed as increase in larvae survival at 10 times MIC; assay type: functional
[17] = Cytotoxicity against human A549 cells assessed as cell viability recovery up to 407 uM by MTT assay relative to untreated control; assay type: cell-based; conditions: read-out: Activity
[18] = Lipophilicity, log D of the compound at pH 3; assay type: physicochemical; conditions: buffer
[19] = Aqueous solubility of the compound at pH 2 after 18 hrs incubation by HPLC; assay type: physicochemical
Staphylococcus aureus [20] = test: Antimicrobial activity against N2,N4-dibenzylquinazoline-2,4-diamine-induced methicillin-resistant Staphylococcus aureus CBD-635 mutant M4 assessed as complete inhibition of bacterial growth after overnight incubation; assay type: functional
Staphylococcus aureus [21] = test: Antimicrobial activity against N2,N4-dibenzylquinazoline-2,4-diamine-induced methicillin-resistant Staphylococcus aureus CBD-635 mutant M3 assessed as complete inhibition of bacterial growth after overnight incubation; assay type: functional
Staphylococcus aureus [22] = test: Antimicrobial activity against N2,N4-dibenzylquinazoline-2,4-diamine-induced methicillin-resistant Staphylococcus aureus CBD-635 mutant M6 assessed as complete inhibition of bacterial growth after overnight incubation; assay type: functional
Staphylococcus aureus [23] = test: Antimicrobial activity against N2,N4-dibenzylquinazoline-2,4-diamine-induced methicillin-resistant Staphylococcus aureus CBD-635 mutant M7 assessed as complete inhibition of bacterial growth after overnight incubation; assay type: functional
Staphylococcus aureus [24] = test: Antimicrobial activity against N2,N4-dibenzylquinazoline-2,4-diamine-induced methicillin-resistant Staphylococcus aureus CBD-635 mutant M5 assessed as complete inhibition of bacterial growth after overnight incubation; assay type: functional
Staphylococcus aureus [25] = test: Antimicrobial activity against N2,N4-dibenzylquinazoline-2,4-diamine-induced methicillin-resistant Staphylococcus aureus CBD-635 mutant M2 assessed as complete inhibition of bacterial growth after overnight incubation; assay type: functional
Staphylococcus aureus [26] = test: Antimicrobial activity against N2,N4-dibenzylquinazoline-2,4-diamine-induced methicillin-resistant Staphylococcus aureus CBD-635 mutant M1 assessed as complete inhibition of bacterial growth after overnight incubation; assay type: functional
[27] = Cytotoxicity against human A549 cells assessed as cell viability recovery at 1.8 to 8.8 uM by MTT assay relative to untreated control; assay type: cell-based; conditions: read-out: Activity
[28] = Cytotoxicity against human A549 cells assessed as cell viability recovery up to 440 uM by MTT assay relative to untreated control; assay type: cell-based; conditions: read-out: Activity
[29] = Cytotoxicity against human A549 cells assessed as cell viability recovery at 18 uM by MTT assay relative to untreated control; assay type: cell-based; conditions: read-out: Activity
[30] = Cytotoxicity against human A549 cells assessed as cell viability recovery at 440 uM by MTT assay relative to untreated control; assay type: cell-based; conditions: read-out: Activity

Row | SMILES | zone of inhibition at 5000 µg/mL (Staphylococcus aureus [1]) [mm] | solubility at 18 h [2] [µM] | MBC50 (Staphylococcus aureus [3]) [µM] | permeability [5] [×10⁻⁶ cm/s] | MIC (Staphylococcus aureus [6]) [µM] | fractional inhibitory concentration index (FICI) (Staphylococcus aureus [7]) | logD [8] | Survival (Staphylococcus aureus [9]) [%] | permeability [10] [×10⁻⁶ cm/s] | inhibition (Staphylococcus aureus [12]) | inhibition (Staphylococcus aureus [14]) | inhibition (Staphylococcus aureus [15]) | Survival (Staphylococcus aureus [16]) [%] | logD [18] | solubility at 18 h [19] [µM] | MIC (Staphylococcus aureus [20]) [µM] | MIC (Staphylococcus aureus [21]) [µM] | MIC (Staphylococcus aureus [22]) [µM] | MIC (Staphylococcus aureus [23]) [µM] | MIC (Staphylococcus aureus [24]) [µM] | also measured
1 | CCCCNc1nc(NCc2ccccc2)c2ccccc2n1 | 12 | ≤ 20 | 0.98 (≈ 0.3 µg/mL) | 161 | 3.3 (≈ 1.01 µg/mL) | 0.11 | 3.8 | 40 | 1250 | inactive | Active | Active | 70 | 2.84 | ≥ 30 | – | – | – | – | – | viability at up to 16 µM [4]: > 100%; Survival (Staphylococcus aureus [11]): 69%; viability at up to 410 µM [13]: > 95%; viability [17]: > 60%
2 | Clc1ccc(CNc2nc(NCc3ccccc3)nc3ccccc23)cc1 | – | – | – | – | 67 (≈ 25.1 µg/mL) | – | – | – | – | inactive | – | – | – | – | – | 2.7 (≈ 1.01 µg/mL) | 2.7 (≈ 1.01 µg/mL) | 2.7 (≈ 1.01 µg/mL) | 2.7 (≈ 1.01 µg/mL) | 2.7 (≈ 1.01 µg/mL) | MIC (Staphylococcus aureus [25]): 2.7 µM (≈ 1.01 µg/mL); MIC (Staphylococcus aureus [26]): 2.7 µM (≈ 1.01 µg/mL)
3 | CC(C)Nc1nc(NC2CCCCC2)c2ccccc2n1 | 13 | ≤ 30 | 8.8 (≈ 2.5 µg/mL) | 112 | 3.5 (≈ 0.995 µg/mL) | 0.1 | 4.69 | 40 | 783 | inactive | Active | Active | 70 | 3.56 | ≥ 30 | – | – | – | – | – | viability at up to 8.8 µM [27]: > 100%; viability [28]: > 60%; viability at 18 µM [29]: 98.6%; viability at 440 µM [30]: 70.3%
4 | Clc1ccc2c(NCc3ccccc3)nc(NCc3ccccc3)nc2c1 | – | – | – | – | 27 (≈ 10.1 µg/mL) | – | – | – | – | inactive | – | – | – | – | – | 2.7 (≈ 1.01 µg/mL) | 2.7 (≈ 1.01 µg/mL) | 2.7 (≈ 1.01 µg/mL) | 2.7 (≈ 1.01 µg/mL) | 2.7 (≈ 1.01 µg/mL) | MIC (Staphylococcus aureus [25]): 27 µM (≈ 10.1 µg/mL); MIC (Staphylococcus aureus [26]): 27 µM (≈ 10.1 µg/mL)

— ChEMBL document CHEMBL3259619, “Antibacterial activity of a series of N2,N4-disubstituted quinazoline-2,4-diamines” (J Med Chem, 2014)
